Measured values taken from Sander's compilation of Henry's law constants (doi:10.1021/j100876a049).

Test: Henry solubility constant Hcp at 298.15 K (mol/(m3 Pa))
Settings: reference: McAuliffe (1966)

| Compound | Henry solubility constant Hcp |
| --- | --- |
| C=CCC [1-butene] | 4e-05 |
| C#CCC [1-butyne] | 0.00054 |
| CC(C)C [2-methylpropane] | 8.5e-06 |
| C=C(C)C [2-methylpropene] | 4.8e-05 |
| C=CC(C)C [3-methyl-1-butene] | 1.9e-05 |
| CCCC [butane] | 1.1e-05 |
| CC(C)(C)C [dimethylpropane] | 4.7e-06 |
| C=C [ethene] | 4.7e-05 |
| C=CC [propene] | 4.8e-05 |
| C#CC [propyne] | 0.00092 |
